Experiments:
[1] = test system: Renca-erbb2 pulmonary metastases
Protocol: After determining safe regimens for adoptive transfer, the inventors tested the efficacy of tumor rejection by CR redirected T cells. The inventors used the Renca-erbb2, renal cancer cell line, stably transfected with erbB2 (HER2) which was injected intravenously into Balb/c mice to generate experimental pulmonary metastases. As effectors, the inventors used splenocytes from transgenic mice expressing a HER2 specific chimeric receptor (based on the N29 antibody derived scFv, FIGS. 7A-B) under the CD2 promoter (which is expressed in T and NK cells [8]). The HER2-specific transgenic mice were kept on two backgrounds: C57Bl and Balb/c (named C57Bl-N29 and Balb-N29 respectively). Wild type Balb/c mice were injected with the Renca-erbb2 on day 1, irradiated on day 7, and HER2 specific T-bodies were injected on day 8 (and also on day 10 and 12 in some cases).
The inventors therefore compared the efficacy of allogeneic (C57Bl-N29) to syngeneic (Balb-N29) T-bodies, and to ensure that allogeneic cells mediate a specific antitumor response (and not just an allogeneic response), they also tested the effect of activated wild type C57Bl cells. Previous experiments in the inventors' lab have established that the minimal regimen which provides significant therapeutic benefit (boosting median survival to 90 days) using syngeneic Balb-N29 is irradiation with 200 rad and transfer of 3 doses of 10 million cells each (abbreviated as 200/30 regimen) complemented with low dose IL-2 (1000 u) twice daily. The purpose was to test if one can provide therapeutic benefit in this model using allogeneic C57Bl-N29 cells. The inventors used the initial regimen as a starting point with one important difference: instead of using naïve transgenic cells, the cells were pre-activated before transfer for 48 hours with concanavalin A. The reason for the change was to simulate a more clinically relevant situation in which lymphocytes will need to be activated in order to facilitate retroviral transduction with the chimeric receptor.

Renca-Her2/neu tumor = test: Survival of Renca-Her2/neu tumor bearing mice after irradiation and T-body transfer (Example 10); format: in vivo, Balb/c mice
Protocol: Adoptive transfer experiments. Mice were injected with […] Renca-Her2/neu cells iv on day 1. All mice (including the control group) were irradiated on day 7 with 200 or 400 rads (137Cs source). Prior to transfer, all T cells were activated with Con-A 1 μg/ml for 48 hours, and then cultured for 3-5 more days with 350 u/ml IL-2. Either 30×10^6 or 108 T cells were transferred in a split dose on days 8 and 10. In some experiments, FTY720 was injected ip (0.3 mg/kg) on days 8-18. Donor cells were either from wildtype mice (Balb/c or C57BL/6) or from N29 CAR transgenic mice (Balb/c or C57BL/6 backgrounds). In some cases, T-bodies from wild type mice (Balb/c or C57Bl) were transduced with the CAR.
To investigate the potential of allogeneic adoptive cell therapy, the BALB/c derived mouse renal cell carcinoma (Renca) cell line expressing the human Her2/neu was used. Following intravenous inoculation of the tumor, experimental metastases mainly developed in the lungs, yet, as was reported in similar systems (ref. 62, 63) extra-pulmonary metastases also developed. […] Adoptive transfer of T cells redirected with a Her2/neu-specific chimeric antigen receptor (‘T-bodies’) was performed on days 8 and 10 (FIG. 21). The CAR is composed of a scFv fragment derived from the Her2/Neu-specific N29 antibody fused to a CD28 co-activation moiety and FcRγ signaling sequences (ref. 8). […] T-bodies were obtained from transgenic (Tg) mice of BALB/c (Balb-N29) or C57BL/6 (Black-N29) background, or by the transduction of wild type T cells with a retrovector harboring the Her2/neu-specific CAR. Transduced T cells were activated as part of their transduction, while naïve transgenic (Tg) T cells were also activated to facilitate comparison with transduced T cells.

[2] = FACS analysis of blood and spleen lymphocytes after transfer of allogeneic T-bodies with or without FTY720; format: in vivo, Balb/c mice
Protocol: Prior to splenocyte staining, RBC were lysed using ACK buffer. Lymphocytes (1×10^6) were incubated with the appropriate antibodies in staining buffer (5% BSA, 0.05% sodium azide in phosphate-buffered saline (PBS)) for 30 minutes on ice. Alternatively, Annexin V staining buffer was used as indicated. CFSE (Carboxyfluorescein succinimidyl ester) labeling was performed according to the manufacturer's instructions (Molecular Probes. Eugene, Oreg.). Cells were analyzed by flow cytometry (LSRII, Becton Dickinson. Mountain View. Calif.) and FacsDiva software (Becton Dickinson).
This enhanced persistence of allogeneic T-bodies can explain the increased survival of tumor bearing mice treated with allogeneic T-bodies and FTY720.

[3] = in vivo; cited from earlier work
S1P3 [4] = biological target: T1, S1P3 (Homo sapiens, UniProt Q99500); settings: read-out: ED50 (the source's name); cited from earlier work
S1P1 = S1P1 (Homo sapiens, UniProt P21453); settings: high affinity for S1P1; cited from earlier work
S1P4 = biological target: T2, S1P4 (Homo sapiens, UniProt O95977); settings: at concentrations up to 10 μM; cited from earlier work
T2 sequence (O95977 1-384): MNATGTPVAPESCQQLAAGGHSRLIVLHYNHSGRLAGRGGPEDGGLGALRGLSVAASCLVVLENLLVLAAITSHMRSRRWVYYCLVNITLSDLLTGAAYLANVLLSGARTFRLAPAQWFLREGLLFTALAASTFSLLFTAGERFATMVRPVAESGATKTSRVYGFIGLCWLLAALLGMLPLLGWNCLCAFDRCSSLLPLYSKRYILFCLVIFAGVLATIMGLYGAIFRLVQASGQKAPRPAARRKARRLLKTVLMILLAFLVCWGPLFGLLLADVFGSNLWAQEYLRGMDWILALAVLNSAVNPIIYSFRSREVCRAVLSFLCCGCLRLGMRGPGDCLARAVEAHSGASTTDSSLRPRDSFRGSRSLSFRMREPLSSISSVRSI

S1P5 receptors = S1P5 receptors (Homo sapiens, UniProt Q9H228); settings: at concentrations up to 10 μM; cited from earlier work
S1P2 = S1P2 (Homo sapiens, UniProt O95136); settings: at concentrations up to 10 μM; cited from earlier work
S1P3 [5] = biological target: T1, S1P3; settings: at concentrations up to 10 μM; cited from earlier work
[6] = 400 rads and 10^8 allo-T-bodies with FTY720

T1 sequence (Q99500 whole entry, species assumed): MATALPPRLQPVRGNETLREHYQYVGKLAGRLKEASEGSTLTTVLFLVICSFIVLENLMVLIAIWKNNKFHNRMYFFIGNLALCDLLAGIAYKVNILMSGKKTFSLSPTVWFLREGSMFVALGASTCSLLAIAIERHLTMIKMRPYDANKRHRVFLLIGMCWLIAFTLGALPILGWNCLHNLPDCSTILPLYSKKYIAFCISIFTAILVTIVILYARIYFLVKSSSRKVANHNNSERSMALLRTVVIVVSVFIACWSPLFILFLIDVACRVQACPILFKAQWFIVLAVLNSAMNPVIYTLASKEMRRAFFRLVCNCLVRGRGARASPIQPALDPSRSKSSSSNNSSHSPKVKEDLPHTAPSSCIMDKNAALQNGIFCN
Sequence of S1P2 (O95136 whole entry, species assumed): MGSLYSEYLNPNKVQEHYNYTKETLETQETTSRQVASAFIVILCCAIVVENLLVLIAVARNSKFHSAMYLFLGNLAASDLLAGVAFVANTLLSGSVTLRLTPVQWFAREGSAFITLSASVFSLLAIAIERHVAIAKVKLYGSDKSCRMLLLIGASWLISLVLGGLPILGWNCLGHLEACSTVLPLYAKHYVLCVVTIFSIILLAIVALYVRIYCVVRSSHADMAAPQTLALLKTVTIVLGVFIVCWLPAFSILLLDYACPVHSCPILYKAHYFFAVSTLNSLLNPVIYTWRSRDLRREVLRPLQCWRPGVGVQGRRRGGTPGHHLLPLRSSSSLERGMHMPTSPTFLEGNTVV
Sequence of S1P5 receptors (Q9H228 whole entry): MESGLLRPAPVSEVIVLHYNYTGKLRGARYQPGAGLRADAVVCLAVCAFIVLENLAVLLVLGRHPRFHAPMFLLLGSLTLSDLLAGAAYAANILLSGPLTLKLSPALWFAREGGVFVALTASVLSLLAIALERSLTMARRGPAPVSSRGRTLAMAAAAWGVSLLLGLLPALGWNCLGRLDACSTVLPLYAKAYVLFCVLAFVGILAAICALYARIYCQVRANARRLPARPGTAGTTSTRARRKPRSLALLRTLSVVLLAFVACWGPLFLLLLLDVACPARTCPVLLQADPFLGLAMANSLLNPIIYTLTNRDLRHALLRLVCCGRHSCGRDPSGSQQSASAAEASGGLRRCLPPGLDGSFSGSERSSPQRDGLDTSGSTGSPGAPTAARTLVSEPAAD
Sequence of S1P1 (P21453 whole entry): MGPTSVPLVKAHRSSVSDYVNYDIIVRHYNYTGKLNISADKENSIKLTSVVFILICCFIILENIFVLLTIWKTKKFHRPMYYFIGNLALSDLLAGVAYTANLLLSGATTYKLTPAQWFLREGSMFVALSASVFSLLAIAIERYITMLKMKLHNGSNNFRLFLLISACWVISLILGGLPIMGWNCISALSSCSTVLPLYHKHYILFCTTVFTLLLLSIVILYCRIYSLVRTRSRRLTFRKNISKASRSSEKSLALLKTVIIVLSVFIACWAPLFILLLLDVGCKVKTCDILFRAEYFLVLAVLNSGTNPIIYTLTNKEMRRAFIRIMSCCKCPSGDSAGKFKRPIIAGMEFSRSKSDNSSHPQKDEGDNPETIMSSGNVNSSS

## CCCCCCCCc1ccc(CCC(N)(CO)CO)cc1.Cl [FTY720, 2-amino-2-[2-(4-octylphenyl)ethyl]propane-1,3-diol]
[1]; 200/100 regimen, C57Bl-N29 with FTY720
  long term survivors: 80%
[1]; 400/30 regimen, C57Bl-N29 with FTY720
  surviving after day 250: ≥ 50%
[1]; 400/30 regimen, C57Bl-N29 with FTY720 0.3 mg/kg ip daily days 8-18
  median survival: not reached
[1]; 400/30 regimen, activated wild type C57Bl cells with FTY720 0.3 mg/kg ip daily days 8-18
  GVHD mortality (mice died): 2/6
[1]; temporary FTY720 treatment added to allogeneic cells (FIG. 18)
  tumor bearing mice survived long term: 50-80%
Renca-Her2/neu tumor; 0.3 mg/kg i.p for the first 10 days after irradiation, no T-bodies
  effect of FTY720 alone on survival of tumor bearing mice: not to affect the survival of tumor bearing mice
Renca-Her2/neu tumor; [6]
  long term survival (>350 days): most of the remaining mice survived long term
  mice died of GvHD: 16%
Renca-Her2/neu tumor; 400 rads and 30x10^6 allogeneic T-bodies with FTY720 0.3 mg/kg ip 10 days
  mice surviving long term (>350 days): 58%
Renca-Her2/neu tumor; 400 rads and 30x10^6 syngeneic T-bodies with FTY720 0.3 mg/kg ip 10 days
  median survival: 90 days
[2]; 4 days after transfer of allogeneic T-bodies, CD3 staining of blood
  lymphocyte egression to the blood: inhibited lymphocyte egression to the blood
[2]; day 7 after transfer, anti-H2Kb staining, with vs without FTY720
  allo-T-bodies in the spleen: higher numbers of allo-T-bodies detected in the spleen on day 7

## NC(CO)(CCc1ccc(Sc2cccc(Oc3ccccc3)c2)cc1Cl)COP(=O)(O)O (stereo not shown) [KRP-203 phosphate, 2-ammonio-4-(2-chloro-4-(3-phenoxyphenylthio)phenyl)-2-(hydroxymethyl)butyl hydrogen phosphate]
[3]
  reduction of incidence of bradycardia compared to FTY720: 10 fold
S1P3 [4]
  EC50: > 1 µM
S1P1
  ED50: in the nM range

## FC(F)(F)c1cccc(-c2noc(-c3cc(-c4ccccc4)c(C(F)(F)F)s3)n2)c1 [SEW2871, 5-[4-Phenyl-5-(trifluoromethyl)thiophen-2-yl]-3-[3-(trifluoromethyl)phenyl]1,2,4-oxadiazole]
S1P4
  receptor activation: does not activate
S1P5 receptors
  receptor activation: does not activate
S1P2
  receptor activation: does not activate
S1P3 [5]
  receptor activation: does not activate
